Laboratory results from ChEMBL document CHEMBL4419173, “Small-molecule inhibitors targeting g-protein-coupled rho guanine nucleotide exchange factors” (2014).
Calls of active or inactive are those of the source. The rule behind the calls is not given here.

Tests used:
Mus musculus [1] = species on record: Mus musculus; assay: Inhibition of RhoGEF in mouse NIH/3T3 cells assessed as inhibition of 10% calf serum-induced Cdc42-GTP formation by measuring Cdc42-GTP level at 30 uM incubated for 24 hrs by densitometry relative to control (reference value: 3.25); type: cell-based
[2] = target: T1, RhoGEF 1/Transforming protein RhoA (Homo sapiens) (UniProt P61586+Q92888); assay: Binding affinity to human LARG (765 to 1138 residues) DH-PH module expressed in mouse NIH/3T3 cells assessed as reduction in LARG binding to human full length RhoA (1 to 193 residues) by measuring relative LARG binding level at 50 uM pull-down assay (reference value: 1 No unit); type: cell-based
Mus musculus [3] = species on record: Mus musculus; assay: Inhibition of RhoGEF in mouse NIH/3T3 cells assessed as inhibition of 10% calf serum-induced RhoA-GTP formation by measuring reduction in RhoA-GTP level at 30 uM incubated for 24 hrs by densitometry relative to control; type: cell-based
MCF7 [4] = assay: Inhibition of RhoGEF in human MCF7 cells derived mammospheres assessed as inhibition of 10% calf serum-induced RhoA-GTP formation at 10 uM incubated for 24 hrs by densitometry relative to control; type: cell-based
Mus musculus [5] = species on record: Mus musculus; assay: Inhibition of RhoGEF in mouse NIH/3T3 cells assessed as inhibition of 10% calf serum-induced RhoA-GTP formation by measuring relative RhoA-GTP level at 50 uM in presence of 50 uM Rhosin/G04 incubated for 24 hrs by densitometry (reference value: 1); type: cell-based
Mus musculus [6] = species on record: Mus musculus; assay: Inhibition of RhoGEF in mouse NIH/3T3 cells assessed as inhibition of 10% calf serum-induced Rac1-GTP formation by measuring Rac1-GTP level at 10 uM incubated for 24 hrs by densitometry relative to control (reference value: 2.86); type: cell-based
Mus musculus [7] = species on record: Mus musculus; assay: Inhibition of RhoGEF-mediated RhoA signaling in mouse NIH/3T3 cells assessed as reduction in 10% calf serum-induced stress fiber and focal complex formation 30 uM incubated for 24 hrs; type: cell-based
Mus musculus [8] = species on record: Mus musculus; assay: Inhibition of RhoGEF in mouse NIH/3T3 cells assessed as inhibition of 10% calf serum-induced RhoA-GTP formation by measuring reduction in RhoA-GTP level at 2.5 uM in presence of 2.5 uM Rhosin/G04 incubated for 24 hrs by densitometry relative to control; type: cell-based
[9] = target: T1, RhoGEF 1/Transforming protein RhoA (Homo sapiens); assay: Binding affinity to human LARG (765 to 1138 residues) DH-PH module expressed in mouse NIH/3T3 cells assessed as reduction in LARG binding to human full length RhoA (1 to 193 residues) by measuring relative LARG binding level at 30 uM pull-down assay (reference value: 1 No unit); type: cell-based
Mus musculus [10] = species on record: Mus musculus; assay: Inhibition of RhoGEF-mediated RhoA signaling in mouse NIH/3T3 cells assessed as inhibition of SDF1a-induced phospho-FAK formation at 10 to 30 uM incubated for 24 hrs by densitometry; type: cell-based
Mus musculus [11] = species on record: Mus musculus; assay: Inhibition of RhoGEF in mouse NIH/3T3 cells assessed as inhibition of 10% calf serum-induced Cdc42-GTP formation by measuring relative Cdc42-GTP level at 50 uM in presence of 50 uM Rhosin/G04 incubated for 24 hrs by densitometry (reference value: 1); type: cell-based
[12] = tested on: Transforming protein RhoA (Homo sapiens), P61586 [Q63L]; assay: Inhibition of constitutively active RhoA Q63L mutant (unknown origin) expressed in mouse NIH/3T3 cells assessed as reduction in 10% calf serum-induced focal adhesion complex formation at 50 uM by anti-vinculin antibody staining based assay; type: cell-based
[13] = target: Rho guanine nucleotide exchange factor 12 (Homo sapiens, UniProt Q9NZN5); assay: Inhibition of human LARG (765 to 1138 residues) RhoGEF binding to human full length RhoA (1 to 193 residues)
MCF7 [14] = assay: Inhibition of RhoGEF in human MCF7 cells derived mammospheres assessed as inhibition of RhoA-mediated phospho-MLC formation at 2.5 uM in presence of 2.5 uM Rhosin/G04 incubated for 24 hrs by densitometry; type: cell-based
MCF7 [15] = assay: Inhibition of cell migration of human MCF7 cells at 2.5 to 30 uM in presence of 2.5 to 30 uM Rhosin/G04; type: functional, cell-based
MCF7 [16] = assay: Inhibition of RhoGEF in human MCF7 cells derived mammospheres assessed as inhibition of 10% calf serum-induced RhoA-GTP formation by measuring relative RhoA-GTP level at 30 uM incubated for 24 hrs by densitometry (reference value: 1); type: cell-based
Mus musculus [17] = species on record: Mus musculus; assay: Inhibition of RhoGEF in mouse NIH/3T3 cells assessed as inhibition of 10% calf serum-induced RhoA-GTP formation by measuring RhoA-GTP level at 10 uM incubated for 24 hrs by densitometry relative to control (reference value: 2.15); type: cell-based
[18] = tested on: Rho-associated protein kinase 2 (Homo sapiens), O75116 [UNDEFINED MUTATION]; assay: Inhibition of constitutively active ROCK2 mutant (unknown origin) expressed in mouse NIH/3T3 cells assessed as reduction in 10% calf serum-induced actin stress fiber formation at 30 uM by rhodamine-phalloidin staining based assay; type: cell-based
MCF7 [19] = assay: Growth inhibition of human MCF7 cells at 2.5 to 15 uM in presence of 2.5 to 15 uM Rhosin/G04; type: functional, cell-based
[20] = target: Protein diaphanous homolog 1/Transforming protein RhoA (Homo sapiens) (UniProt P61586+O60610); assay: Inhibition of human mDia1 expressed in mouse NIH/3T3 cells assessed as reduction in human full length RhoA (1 to 193 residues) interaction with mDia1 at 50 to 100 uM incubated for 1 hr by Western blot analysis based His-RhoA pull-down assay; type: cell-based
MCF7 [21] = assay: Growth inhibition of human MCF7 cells at 5 to 50 uM; type: functional, cell-based
Mus musculus [22] = species on record: Mus musculus; assay: Inhibition of RhoGEF in mouse NIH/3T3 cells assessed as inhibition of 10% calf serum-induced RhoA-GTP formation by measuring relative RhoA-GTP level at 15 uM in presence of 15 uM Rhosin/G04 incubated for 24 hrs by densitometry (reference value: 1); type: cell-based
Mus musculus [23] = species on record: Mus musculus; assay: Inhibition of RhoGEF-mediated RhoA signaling in mouse NIH/3T3 cells assessed as inhibition of SDF1a-induced phospho-MLC formation at 10 to 30 uM incubated for 24 hrs by densitometry; type: cell-based
MCF7 [24] = assay: Inhibition of mammospheres formation in human MCF7 cells incubated for 10 days; type: functional, cell-based
[25] = target: Intersectin-1 (Homo sapiens) (UniProt Q15811); assay: Inhibition of GST-tagged human intersectin-1 (1227 to 1571 residues) RhoGEF-catalyzed guanine nucleotide-exchange reaction of human full length Cdc42 (1 to 191 residues) by measuring inhibition of the GDP dissociation from Cdc42 at 0.76 to 250000 nM by Alexa 647 fluorescence dye based GDP/GTP exchange assay
Intersectin-1 (Homo sapiens), sequence (Q15811 whole entry, the tested form may be a part): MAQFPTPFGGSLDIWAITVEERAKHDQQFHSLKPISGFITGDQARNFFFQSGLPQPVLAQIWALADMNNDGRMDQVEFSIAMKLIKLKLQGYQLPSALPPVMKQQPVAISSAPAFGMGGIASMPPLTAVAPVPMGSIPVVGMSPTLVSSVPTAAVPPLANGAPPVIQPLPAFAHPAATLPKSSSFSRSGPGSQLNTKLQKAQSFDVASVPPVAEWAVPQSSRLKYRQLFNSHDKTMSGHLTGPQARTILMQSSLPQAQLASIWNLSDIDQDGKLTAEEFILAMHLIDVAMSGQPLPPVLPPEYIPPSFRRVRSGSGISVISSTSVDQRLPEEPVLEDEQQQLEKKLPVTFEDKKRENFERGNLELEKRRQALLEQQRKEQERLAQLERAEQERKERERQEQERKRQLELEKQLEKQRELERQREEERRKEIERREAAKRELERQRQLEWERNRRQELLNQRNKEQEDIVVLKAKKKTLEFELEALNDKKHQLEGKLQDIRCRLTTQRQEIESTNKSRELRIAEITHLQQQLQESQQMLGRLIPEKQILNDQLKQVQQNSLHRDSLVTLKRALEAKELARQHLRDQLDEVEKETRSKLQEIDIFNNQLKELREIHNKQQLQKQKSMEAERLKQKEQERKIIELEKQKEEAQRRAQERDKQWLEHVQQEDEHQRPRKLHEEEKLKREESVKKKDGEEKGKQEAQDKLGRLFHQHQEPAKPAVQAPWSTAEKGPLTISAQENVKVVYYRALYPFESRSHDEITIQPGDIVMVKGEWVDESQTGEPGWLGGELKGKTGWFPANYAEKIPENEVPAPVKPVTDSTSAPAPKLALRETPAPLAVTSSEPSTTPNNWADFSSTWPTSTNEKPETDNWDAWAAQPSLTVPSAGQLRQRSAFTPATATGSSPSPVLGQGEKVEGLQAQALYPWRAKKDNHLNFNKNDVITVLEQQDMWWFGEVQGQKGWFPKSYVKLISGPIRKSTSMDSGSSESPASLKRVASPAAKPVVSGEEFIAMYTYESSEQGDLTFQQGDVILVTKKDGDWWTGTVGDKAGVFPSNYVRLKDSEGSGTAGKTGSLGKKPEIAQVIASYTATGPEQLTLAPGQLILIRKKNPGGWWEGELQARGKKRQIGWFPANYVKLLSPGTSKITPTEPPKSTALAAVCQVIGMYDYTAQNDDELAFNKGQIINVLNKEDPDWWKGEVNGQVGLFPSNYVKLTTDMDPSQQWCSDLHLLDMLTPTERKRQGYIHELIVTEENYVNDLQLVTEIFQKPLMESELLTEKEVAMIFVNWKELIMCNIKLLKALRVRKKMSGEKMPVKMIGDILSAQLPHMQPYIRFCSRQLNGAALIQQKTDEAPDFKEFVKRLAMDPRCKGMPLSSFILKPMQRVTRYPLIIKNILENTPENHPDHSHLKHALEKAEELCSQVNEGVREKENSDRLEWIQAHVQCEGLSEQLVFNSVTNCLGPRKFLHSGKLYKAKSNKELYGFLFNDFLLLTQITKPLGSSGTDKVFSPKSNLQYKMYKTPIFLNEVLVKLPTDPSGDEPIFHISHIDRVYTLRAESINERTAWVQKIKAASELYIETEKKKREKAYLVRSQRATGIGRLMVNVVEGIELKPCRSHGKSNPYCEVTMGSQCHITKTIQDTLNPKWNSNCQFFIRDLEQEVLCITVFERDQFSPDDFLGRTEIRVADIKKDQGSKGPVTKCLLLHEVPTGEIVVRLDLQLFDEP

Rho guanine nucleotide exchange factor 12, sequence (Q9NZN5 whole entry, the tested form may be a part): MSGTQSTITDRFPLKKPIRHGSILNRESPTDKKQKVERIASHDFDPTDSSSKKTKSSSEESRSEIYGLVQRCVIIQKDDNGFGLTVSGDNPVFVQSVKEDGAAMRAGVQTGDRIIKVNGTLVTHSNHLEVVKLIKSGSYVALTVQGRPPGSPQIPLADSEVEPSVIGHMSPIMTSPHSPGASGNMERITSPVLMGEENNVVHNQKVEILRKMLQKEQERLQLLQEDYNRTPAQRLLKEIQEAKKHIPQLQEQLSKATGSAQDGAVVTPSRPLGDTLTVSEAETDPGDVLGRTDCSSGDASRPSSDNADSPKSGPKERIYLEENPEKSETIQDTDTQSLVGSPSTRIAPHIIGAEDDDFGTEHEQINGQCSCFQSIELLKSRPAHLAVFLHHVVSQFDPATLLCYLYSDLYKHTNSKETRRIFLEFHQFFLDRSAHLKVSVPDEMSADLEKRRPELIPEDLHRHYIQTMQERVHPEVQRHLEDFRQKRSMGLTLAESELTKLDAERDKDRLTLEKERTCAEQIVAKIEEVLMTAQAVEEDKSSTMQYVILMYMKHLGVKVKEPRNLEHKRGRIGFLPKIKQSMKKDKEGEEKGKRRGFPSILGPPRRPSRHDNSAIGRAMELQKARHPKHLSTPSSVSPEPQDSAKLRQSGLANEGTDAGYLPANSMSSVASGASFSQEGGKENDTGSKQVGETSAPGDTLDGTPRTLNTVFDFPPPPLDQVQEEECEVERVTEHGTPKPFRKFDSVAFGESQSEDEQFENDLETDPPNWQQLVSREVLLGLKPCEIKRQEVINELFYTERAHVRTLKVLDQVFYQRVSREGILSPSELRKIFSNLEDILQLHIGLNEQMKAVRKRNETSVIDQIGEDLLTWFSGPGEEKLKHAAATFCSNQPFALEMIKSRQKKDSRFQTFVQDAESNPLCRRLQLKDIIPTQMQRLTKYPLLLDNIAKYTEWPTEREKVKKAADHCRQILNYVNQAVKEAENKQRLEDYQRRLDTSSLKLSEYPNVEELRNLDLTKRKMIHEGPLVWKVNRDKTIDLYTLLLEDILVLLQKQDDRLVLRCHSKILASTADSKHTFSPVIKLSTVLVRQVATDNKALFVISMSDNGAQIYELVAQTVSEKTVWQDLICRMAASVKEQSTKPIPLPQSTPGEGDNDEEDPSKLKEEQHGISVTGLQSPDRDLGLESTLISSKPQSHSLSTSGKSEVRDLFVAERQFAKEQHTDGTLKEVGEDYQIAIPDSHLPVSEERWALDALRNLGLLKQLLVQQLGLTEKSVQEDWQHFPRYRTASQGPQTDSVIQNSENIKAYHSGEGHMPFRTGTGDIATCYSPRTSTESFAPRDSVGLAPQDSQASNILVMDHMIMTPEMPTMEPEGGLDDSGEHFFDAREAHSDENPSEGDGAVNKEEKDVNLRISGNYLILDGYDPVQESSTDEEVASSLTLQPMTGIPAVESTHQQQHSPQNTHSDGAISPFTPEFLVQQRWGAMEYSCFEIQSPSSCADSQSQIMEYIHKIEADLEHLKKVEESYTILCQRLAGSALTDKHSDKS
Rho-associated protein kinase 2 (Homo sapiens), O75116 [UNDEFINED MUTATION], sequence (O75116 whole entry, looked up, change not shown): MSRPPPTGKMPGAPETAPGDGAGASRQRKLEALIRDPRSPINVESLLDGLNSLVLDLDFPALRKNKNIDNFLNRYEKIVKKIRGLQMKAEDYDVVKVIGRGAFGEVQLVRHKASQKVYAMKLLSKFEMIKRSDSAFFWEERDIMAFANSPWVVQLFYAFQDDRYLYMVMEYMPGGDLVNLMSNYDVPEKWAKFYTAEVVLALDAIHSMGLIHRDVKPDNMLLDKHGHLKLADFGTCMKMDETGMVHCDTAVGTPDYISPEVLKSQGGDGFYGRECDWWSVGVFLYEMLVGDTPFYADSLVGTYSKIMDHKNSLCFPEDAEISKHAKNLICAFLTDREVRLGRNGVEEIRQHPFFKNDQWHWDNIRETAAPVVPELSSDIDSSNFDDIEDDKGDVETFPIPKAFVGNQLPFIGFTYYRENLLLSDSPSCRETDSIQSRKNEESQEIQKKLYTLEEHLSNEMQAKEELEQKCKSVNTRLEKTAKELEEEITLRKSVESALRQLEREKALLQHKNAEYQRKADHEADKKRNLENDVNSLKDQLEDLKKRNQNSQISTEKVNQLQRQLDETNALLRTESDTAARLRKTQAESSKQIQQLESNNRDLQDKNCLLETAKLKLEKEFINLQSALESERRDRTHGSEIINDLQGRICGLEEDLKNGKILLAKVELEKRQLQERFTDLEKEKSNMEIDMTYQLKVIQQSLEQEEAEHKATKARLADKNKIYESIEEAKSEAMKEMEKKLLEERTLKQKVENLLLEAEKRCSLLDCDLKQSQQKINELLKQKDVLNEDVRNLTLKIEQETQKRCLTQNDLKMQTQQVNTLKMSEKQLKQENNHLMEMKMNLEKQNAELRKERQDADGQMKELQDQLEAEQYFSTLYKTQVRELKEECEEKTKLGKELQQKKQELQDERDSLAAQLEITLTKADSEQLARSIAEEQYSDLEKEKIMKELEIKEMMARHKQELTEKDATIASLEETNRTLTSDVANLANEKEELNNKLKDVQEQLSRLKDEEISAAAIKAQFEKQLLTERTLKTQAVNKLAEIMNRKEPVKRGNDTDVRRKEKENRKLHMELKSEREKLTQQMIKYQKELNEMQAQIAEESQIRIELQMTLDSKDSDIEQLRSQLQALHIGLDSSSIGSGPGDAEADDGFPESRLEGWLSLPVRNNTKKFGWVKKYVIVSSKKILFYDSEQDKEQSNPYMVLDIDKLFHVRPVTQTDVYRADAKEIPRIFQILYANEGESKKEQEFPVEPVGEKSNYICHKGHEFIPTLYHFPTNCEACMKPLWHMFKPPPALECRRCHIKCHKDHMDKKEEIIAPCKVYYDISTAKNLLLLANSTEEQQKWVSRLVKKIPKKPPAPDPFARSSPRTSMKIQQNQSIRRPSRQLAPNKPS
Transforming protein RhoA (Homo sapiens), P61586 [Q63L], sequence (P61586 whole entry Q63L, the tested form may be a part): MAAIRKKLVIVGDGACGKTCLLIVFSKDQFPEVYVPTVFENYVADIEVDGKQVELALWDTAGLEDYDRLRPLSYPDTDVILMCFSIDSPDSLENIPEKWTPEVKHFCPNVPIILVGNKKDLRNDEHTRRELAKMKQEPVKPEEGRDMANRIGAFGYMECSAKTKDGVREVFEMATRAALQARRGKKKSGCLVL

Question: `Cc1cccc(COc2cccc(/C=C3\C(=O)NN(c4ccccc4)C3=O)c2)c1` was tested. Which fold change (FC) (Mus musculus [1]) did it give?
Answer: 2.11

Question: And the fold change (FC) [2]?
Answer: 0.19

Question: And the inhibition (Mus musculus [3])?
Answer: 80%

Question: What about the inhibition (MCF7 [4]) of the same molecule?
Answer: 50%

Question: What about the fold change (FC) (Mus musculus [5]) of the same molecule?
Answer: 0

Question: What about the fold change (FC) (Mus musculus [6]) of the same molecule?
Answer: 1.83

Question: And the inhibition (Mus musculus [7])?
Answer: Active

Question: And the inhibition (Mus musculus [8])?
Answer: 50%

Question: And the fold change (FC) [9]?
Answer: 0.57

Question: What about the inhibition (Mus musculus [10]) of the same molecule?
Answer: Active

Question: What about the fold change (FC) (Mus musculus [11]) of the same molecule?
Answer: 1.27

Question: And the inhibition [12]?
Answer: inactive

Question: And the IC50 [13]?
Answer: 5 µM

Question: And the inhibition (MCF7 [14])?
Answer: 70%

Question: And the inhibition (MCF7 [15])?
Answer: Active

Question: And the fold change (FC) (MCF7 [16])?
Answer: 0.15

Question: And the fold change (FC) (Mus musculus [17])?
Answer: 1.09

Question: And the inhibition [18]?
Answer: inactive

Question: What about the “growth inhibition (GI)” value (MCF7 [19]) of the same molecule?
Answer: Active

Question: And the inhibition [20]?
Answer: inactive

Question: What about the “growth inhibition (GI)” value (MCF7 [21]) of the same molecule?
Answer: Active

Question: And the fold change (FC) (Mus musculus [22])?
Answer: 0.25

Question: And the inhibition (Mus musculus [23])?
Answer: Active

Question: And the inhibition (MCF7 [24])?
Answer: Dose-dependent effect

Question: What about the inhibition [25] of the same molecule?
Answer: inactive
